Measured values published in patent US20230271954A1 (Gossamer Bio Services, Inc., priority 2020, published 2023).

Legend:
[1] = target: T1, DGKζ (Homo sapiens, UniProt Q13574); assay: DGKζ biochemical assay (ADP-Glo); conditions: read-out: DGK ζ IC50
T1 construct: purchased Carna 12-110
Method: (§1) Compounds of the present invention were prepared into 10 mM DMSO solution and 10 nL of stock was transferred into 384 plates (Optiplate 384 plate) using Echo550. DMSO was used as high control, and ATP substrate buffer was used as a low control. A 1× enzyme assay buffer was prepared (Hepes, pH 7.0 25 mM, BSA 0.05%, Triton-X100 0.002%, CaCl2) 1 μM, MgCl2 10 mM, DTT 2 mM). […] OAG (1-oleoyl-2-acetyl-sn-glycerol, 25 mg/ml, Avanti 8001000) and PS (10 mg/ml, Avanti 840032P) were mixed at the ratio of 1:2. A 1× substrate solution was prepared with 1× assay buffer by 100-fold dilution. The substrate solution was sonicated on ice for 1 min. The pure ATP was added to the substrate solution (DGKα:400 μM). 5 μL of the enzyme solution were added to the 384 well plate, and the plate was spun for 1 min at 1000 rpm and incubated for 30 mins at RT. 5 μL of 1× substrate solution were added to the 384 well plate, the plate was spun and then incubated for 45 mins at RT. 10 μL ADP-Glo […] was added to stop the assay. After 60 mins at RT, 20 μL ADP-Glo Detection buffer was added as the final step. Plate was read after 45 min incubation at RT.
(§2) Data analysis was performed by calculating the […] using following the formula:
(§3) [formula] • High control (Hc): DMSO/DGKα(DGKζ)/Substrate/ATP/ADP-Glo • Low Control (Lc): ATP/ADP-Glo

[2] = target: DGKα (Homo sapiens, UniProt P23743); assay: DGKα biochemical assay (ADP-Glo); conditions: read-out: DGK α IC50
Method: as §1, §2, §3

T1 sequence (Q13574 1-929 isoform Q13574-4): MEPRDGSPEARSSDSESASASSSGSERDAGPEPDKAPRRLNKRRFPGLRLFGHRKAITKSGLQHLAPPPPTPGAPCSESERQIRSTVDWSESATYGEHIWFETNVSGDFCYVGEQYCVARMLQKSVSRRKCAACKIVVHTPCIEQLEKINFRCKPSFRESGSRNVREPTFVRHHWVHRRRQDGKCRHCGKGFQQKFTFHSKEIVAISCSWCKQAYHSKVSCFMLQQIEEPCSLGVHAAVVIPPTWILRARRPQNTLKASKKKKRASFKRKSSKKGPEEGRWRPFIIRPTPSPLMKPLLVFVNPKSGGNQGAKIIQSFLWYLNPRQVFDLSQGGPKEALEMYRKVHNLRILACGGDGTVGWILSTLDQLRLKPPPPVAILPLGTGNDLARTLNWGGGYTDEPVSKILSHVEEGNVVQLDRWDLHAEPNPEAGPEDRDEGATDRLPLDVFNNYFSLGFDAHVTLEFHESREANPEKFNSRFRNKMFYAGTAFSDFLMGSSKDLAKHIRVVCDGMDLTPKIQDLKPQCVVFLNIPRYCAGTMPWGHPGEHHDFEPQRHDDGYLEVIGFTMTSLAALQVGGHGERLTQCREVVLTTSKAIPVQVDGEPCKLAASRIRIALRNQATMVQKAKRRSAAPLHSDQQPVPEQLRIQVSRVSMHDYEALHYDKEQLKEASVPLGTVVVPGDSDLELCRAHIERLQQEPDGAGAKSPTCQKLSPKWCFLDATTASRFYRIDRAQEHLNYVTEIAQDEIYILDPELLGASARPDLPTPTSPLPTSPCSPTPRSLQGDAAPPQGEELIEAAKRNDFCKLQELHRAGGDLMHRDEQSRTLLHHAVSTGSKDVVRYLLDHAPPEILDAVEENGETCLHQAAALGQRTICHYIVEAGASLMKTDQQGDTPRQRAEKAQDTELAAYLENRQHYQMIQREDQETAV
DGKα, sequence (P23743 whole entry): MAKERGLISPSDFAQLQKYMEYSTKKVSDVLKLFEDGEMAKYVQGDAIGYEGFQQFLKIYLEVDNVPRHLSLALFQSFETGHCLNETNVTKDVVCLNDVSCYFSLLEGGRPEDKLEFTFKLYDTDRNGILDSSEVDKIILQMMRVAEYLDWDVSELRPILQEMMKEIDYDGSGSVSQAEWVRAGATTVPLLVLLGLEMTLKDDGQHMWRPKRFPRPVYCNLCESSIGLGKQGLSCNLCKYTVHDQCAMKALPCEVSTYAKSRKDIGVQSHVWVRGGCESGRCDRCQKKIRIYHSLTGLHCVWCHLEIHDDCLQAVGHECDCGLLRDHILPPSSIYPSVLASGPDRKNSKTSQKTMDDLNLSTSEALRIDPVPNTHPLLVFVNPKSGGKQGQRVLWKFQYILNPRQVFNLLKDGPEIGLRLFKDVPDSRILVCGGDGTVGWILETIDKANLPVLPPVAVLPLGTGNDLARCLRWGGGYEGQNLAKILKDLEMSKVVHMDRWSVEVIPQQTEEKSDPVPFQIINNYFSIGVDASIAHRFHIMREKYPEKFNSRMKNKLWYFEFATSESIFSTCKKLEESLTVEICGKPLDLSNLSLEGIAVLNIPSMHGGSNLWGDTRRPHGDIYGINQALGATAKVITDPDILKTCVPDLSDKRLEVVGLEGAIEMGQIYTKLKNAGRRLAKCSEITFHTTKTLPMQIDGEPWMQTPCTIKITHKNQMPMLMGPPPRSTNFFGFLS

Row | Compound | IC50 [1] | IC50 [2]
1 | Cn1c(=O)c(C#N)c(N(C)[C@H]2CC[C@@H](N(CC3CCOC3)c3ccc(F)cc3)CC2)c2nc(C#N)ccc21 (relative stereo) [Example 55, cis-8-((4-((4-fluorophenyl)((tetrahydrofuran-3-yl)methyl)amino)cyclohexyl)(methyl)amino)-5-methyl-6-oxo-5,6-dihydro-1,5-naphthyridine-2,7-dicarbonitrile] | 10 to 100 nM | < 10 nM
2 | Cn1c(=O)c(C#N)c(N(C)[C@H]2CC[C@H](N(CC3CCOC3)c3ccc(F)cc3)CC2)c2nc(C#N)ccc21 (relative stereo) [Example 56, trans-8-((4-((4-fluorophenyl)((tetrahydrofuran-3-yl)methyl)amino)cyclohexyl)(methyl)amino)-5-methyl-6-oxo-5,6-dihydro-1,5-naphthyridine-2,7-dicarbonitrile] | ≥ 1000 nM | 10 to 100 nM
3 | Cn1c(=O)c(C#N)c(N(C)[C@H]2CC[C@@H](N(CC3CCCOC3)c3ccc(F)cc3)CC2)c2nc(C#N)ccc21 (relative stereo) [Example 57, cis-8-((4-((4-fluorophenyl)((tetrahydro-2H-pyran-3-yl)methyl)amino)cyclohexyl)(methyl)amino)-5-methyl-6-oxo-5,6-dihydro-1,5-naphthyridine-2,7-dicarbonitrile] | 10 to 100 nM | < 10 nM
4 | Cn1c(=O)c(C#N)c(N(C)[C@H]2CC[C@H](N(CC3CCCOC3)c3ccc(F)cc3)CC2)c2nc(C#N)ccc21 (relative stereo) [Example 58, trans-8-((4-((4-fluorophenyl)((tetrahydro-2H-pyran-3-yl)methyl)amino)cyclohexyl)(methyl)amino)-5-methyl-6-oxo-5,6-dihydro-1,5-naphthyridine-2,7-dicarbonitrile] | ≥ 1000 nM | 100 to 1000 nM
5 | CN(c1cc(=O)n(C)c2ccc(C#N)nc12)C1CCC(N(CC2CCC2)c2ccc(CN3CCOCC3)cc2)CC1 (single isomer, unassigned) [Example 189, (cis or trans)-8-((4-((cyclobutylmethyl)(4-(morpholinomethyl)phenyl)amino)cyclohexyl) (methyl)amino)-5-methyl-6-oxo-5,6-dihydro-1,5-naphthyridine-2-carbonitrile] | ≥ 1000 nM | ≥ 1000 nM
6 | CN(c1c(C#N)c(=O)n(C)c2ccc(C#N)nc12)C1CCC(N(CC2CCC2)c2ccc(CN3CCOCC3)cc2)CC1 (single isomer, unassigned) [Example 190, (cis or trans)-8-((4-((cyclobutylmethyl)(4-(morpholinomethyl)phenyl)amino)cyclohexyl) (methyl)amino)-5-methyl-6-oxo-5,6-dihydro-1,5-naphthyridine-2,7-dicarbonitrile] | ≥ 1000 nM | 10 to 100 nM
7 | CN(c1c(C#N)c(=O)n(C)c2ccc(Cl)nc12)C1CCC(N(CC2CCC2)c2ccc(CN3CCOCC3)cc2)CC1 (single isomer, unassigned) [Example 191, (cis or trans)-6-chloro-4-((4-((cyclobutylmethyl)(4-(morpholinomethyl)phenyl)amino)cyclohexyl) (methyl)amino)-1-methyl-2-oxo-1,2-dihydro-1,5-naphthyridine-3-carbonitrile] | ≥ 1000 nM | 10 to 100 nM
8 | Cn1c(=O)cc(N(C)[C@H]2CC[C@@H](N(CC3COCCO3)c3cccc4c3OCO4)CC2)c2nc(C#N)ccc21 (single isomer, unassigned) [Example 195, cis-8-((-4-((((S or R)-1,4-dioxan-2-yl)methyl) (benzo[d][1,3]dioxol-4-yl)amino)cyclohexyl)(methyl)amino)-5-methyl-6-oxo-5,6-dihydro-1,5-naphthyridine-2-carbonitrile] | 100 to 1000 nM | 100 to 1000 nM
9 | Cn1c(=O)cc(N(C)[C@H]2CC[C@@H](N(CC3COCCO3)c3cccc4c3OCO4)CC2)c2nc(C#N)ccc21 (single isomer, unassigned) [Example 196, cis-8-((-4-((((R or S)-1,4-dioxan-2-yl)methyl) (benzo[d][1,3]dioxol-4-yl)amino)cyclohexyl)(methyl)amino)-5-methyl-6-oxo-5,6-dihydro-1,5-naphthyridine-2-carbonitrile] | 100 to 1000 nM | ≥ 1000 nM
10 | CN1CCN(Cc2ccc(N(CC3CC3)C3CCC(N(C)c4c(C#N)c(=O)n(C)c5ccc(C#N)nc45)CC3)cc2)CC1 (single isomer, unassigned) [Example 199, (cis or trans)-8-((4-((cyclopropylmethyl)(4-((4-methylpiperazin-1-yl)methyl)phenyl)amino)cyclohexyl)(methyl)amino)-5-methyl-6-oxo-5,6-dihydro-1,5-naphthyridine-2,7-dicarbonitrile] | ≥ 1000 nM | ≥ 1000 nM
11 | Cc1cc(F)ccc1N(CC1CCCO1)C1CCC(N(C)c2c(C#N)c(=O)n(C)c3ccc(C#N)nc23)CC1 (stereo in doubt) [Example 153, cis-8-((-4-((4-fluoro-2-methylphenyl) ((tetrahydrofuran-2-yl)methyl)amino)cyclohexyl) (methyl)amino)-5-methyl-6-oxo-5,6-dihydro-1,5-naphthyridine-2,7-dicarbonitrile] | 100 to 1000 nM | 100 to 1000 nM
12 | Cn1c(=O)cc(N2CCC(N(CC3CC3)c3ccccc3O)CC2)c2nc(C#N)ccc21 [Example 1A, 8-(4-((Cyclopropylmethyl)(2-hydroxyphenyl)amino)piperidin-1-yl)-5-methyl-6-oxo-5,6-dihydro-1,5-naphthyridine-2-carbonitrile] | ≥ 1000 nM | 100 to 1000 nM
13 | Cn1c(=O)c([N+](=O)[O-])c(N2CCC(N(CC3CC3)c3ccccc3)CC2)c2nc(C#N)ccc21 [Example 1B, 8-(4-((Cyclopropylmethyl)(phenyl)amino)piperidin-1-yl)-5-methyl-7-nitro-6-oxo-5,6-dihydro-1,5-naphthyridine-2-carbonitrile] | 100 to 1000 nM | 10 to 100 nM
14 | Cn1c(=O)c([N+](=O)[O-])c(N2CCC(N(CC3COC3)c3ccccc3)CC2)c2nc(C#N)ccc21 [Example 1C, 5-Methyl-7-nitro-8-(4-((oxetan-3-ylmethyl)(phenyl)amino)piperidin-1-yl)-6-oxo-5,6-dihydro-1,5-naphthyridine-2-carbonitrile] | ≥ 1000 nM | ≥ 1000 nM
15 | Cn1c(=O)c([N+](=O)[O-])c(N2CCC(N(CC3(C)COC3)c3ccccc3)CC2)c2nc(C#N)ccc21 [Example 1D, 5-Methyl-8-(4-(((3-methyloxetan-3-yl)methyl)(phenyl)amino)piperidin-1-yl)-7-nitro-6-oxo-5,6-dihydro-1,5-naphthyridine-2-carbonitrile] | ≥ 1000 nM | 100 to 1000 nM
16 | Cn1c(=O)c(C#N)c(N2CCC(N(CC3CC3)c3ccccc3O)CC2)c2nc(Cl)ccc21 [Example 1E, 6-Chloro-4-(4-((cyclopropylmethyl)(2-hydroxyphenyl)amino)piperidin-1-yl)-1-methyl-2-oxo-1,2-dihydro-1,5-naphthyridine-3-carbonitrile] | ≥ 1000 nM | 10 to 100 nM
17 | Cc1ccc2c(c1)c(N1CCC(N(CC3CC3)c3ccccc3)CC1)cc1nncn12 [Example 1F, N-(Cyclopropylmethyl)-1-(7-methyl-[1,2,4]triazolo[4,3-a]quinolin-5-yl)-N-phenylpiperidin-4-amine] | ≥ 1000 nM | 10 to 100 nM
18 | CN1C(=O)CN([C@H]2CC[C@H](N(CC3CC3)c3ccccc3)CC2)c2nc(C#N)ccc21 [Example 2A, trans-4-[4-[N-(Cyclopropylmethyl)anilino]cyclohexyl]-1-methyl-2-oxo-3H-pyrido[2,3-b]pyrazine-6-carbonitrile] | ≥ 1000 nM | 10 to 100 nM
19 | CN1C(=O)CN([C@H]2CC[C@H](N(c3ccccc3O)C3CC3)CC2)c2nc(C#N)ccc21 [Example 2B, 4-(trans-4-(Cyclopropyl(2-hydroxyphenyl)amino)cyclohexyl)-1-methyl-2-oxo-1,2,3,4-tetrahydropyrido[3,2-b]pyrazine-6-carbonitrile] | ≥ 1000 nM | 100 to 1000 nM
20 | CN1C(=O)CN([C@H]2CC[C@@H](N(CC3CC3)c3ccccc3)CC2)c2nc(C#N)ccc21 [Example 2C, cis-4-[4-[N-(Cyclopropylmethyl)anilino]cyclohexyl]-1-methyl-2-oxo-3H-pyrido[2,3-b]pyrazine-6-carbonitrile] | ≥ 1000 nM | 100 to 1000 nM
21 | Cn1c(=O)c(C#N)c(N[C@H]2CC[C@H](N(c3ccccc3)C3CC3)CC2)c2nc(Cl)ccc21 [Example 3A, trans-6-Chloro-4-((4-(cyclopropyl(phenyl)amino)cyclohexyl)amino)-1-methyl-2-oxo-1,2-dihydro-1,5-naphthyridine-3-carbonitrile] | ≥ 1000 nM | < 10 nM
22 | Cn1c(=O)cc(N(C)[C@H]2CC[C@H](N(CC3CC3)c3ccc(F)cn3)CC2)c2nc(C#N)ccc21 [Example 3AA] | ≥ 1000 nM | 100 to 1000 nM
23 | Cn1c(=O)c(C#N)c(N[C@H]2CC[C@H](N(CC3CC3)c3ccccc3)CC2)c2nc(Cl)ccc21 [Example 3B, trans-6-Chloro-4-((4-((cyclopropylmethyl)(phenyl)amino)cyclohexyl)amino)-1-methyl-2-oxo-1,2-dihydro-1,5-naphthyridine-3-carbonitrile] | ≥ 1000 nM | < 10 nM
